Test results published in the Kinase Knowledgebase extract (Sharma et al. 2016).
pIC50: −log10 of the molar value.

Biological target: PIK3CA (human) (UniProt P42336)
Experiment: Inhibition of PIK3CA Kinase Activity

Chain of PIK3CA (human) (P42336 whole entry, looked up): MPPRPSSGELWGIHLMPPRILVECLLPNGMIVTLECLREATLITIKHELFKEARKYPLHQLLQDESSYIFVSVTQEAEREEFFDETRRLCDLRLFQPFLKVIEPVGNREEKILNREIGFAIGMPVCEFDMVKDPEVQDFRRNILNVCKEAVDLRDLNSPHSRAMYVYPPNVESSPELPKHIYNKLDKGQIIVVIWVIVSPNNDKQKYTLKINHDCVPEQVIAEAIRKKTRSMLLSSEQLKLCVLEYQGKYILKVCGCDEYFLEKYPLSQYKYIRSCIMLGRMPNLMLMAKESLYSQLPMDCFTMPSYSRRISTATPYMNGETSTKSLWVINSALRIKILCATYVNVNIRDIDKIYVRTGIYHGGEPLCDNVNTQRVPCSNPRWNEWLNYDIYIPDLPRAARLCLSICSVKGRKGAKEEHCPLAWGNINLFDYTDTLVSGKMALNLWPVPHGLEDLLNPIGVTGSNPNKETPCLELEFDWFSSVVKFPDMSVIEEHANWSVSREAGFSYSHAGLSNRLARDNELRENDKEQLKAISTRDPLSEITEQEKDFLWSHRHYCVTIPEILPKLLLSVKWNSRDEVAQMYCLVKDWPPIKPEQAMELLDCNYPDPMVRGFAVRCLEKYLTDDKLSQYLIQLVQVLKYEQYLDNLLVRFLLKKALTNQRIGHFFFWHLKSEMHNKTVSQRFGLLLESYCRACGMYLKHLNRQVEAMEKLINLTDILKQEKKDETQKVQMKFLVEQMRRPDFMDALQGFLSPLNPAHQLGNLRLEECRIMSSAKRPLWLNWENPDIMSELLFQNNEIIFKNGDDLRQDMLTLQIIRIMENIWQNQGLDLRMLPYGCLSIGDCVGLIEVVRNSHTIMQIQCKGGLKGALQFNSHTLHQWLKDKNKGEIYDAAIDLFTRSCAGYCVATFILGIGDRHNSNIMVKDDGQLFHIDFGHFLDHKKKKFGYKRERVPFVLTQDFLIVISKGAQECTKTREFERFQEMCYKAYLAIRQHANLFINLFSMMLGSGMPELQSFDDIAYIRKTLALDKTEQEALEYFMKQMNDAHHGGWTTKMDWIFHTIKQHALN

SMILES	pIC50
Cc1nc2ccc(-c3ccc4c(c3)CN(c3ncnc(C)c3Cc3cccc(F)c3)CCO4)cc2[nH]1	7.30 to 8.00
Cc1nc(N2CCOc3ccc(-c4ccc(-c5ncc[nH]5)cc4)cc3C2)c2ccccc2n1	7.30 to 8.00
COC(=O)Nc1nc2ccc(-c3ccc4c(c3)CN(c3ncnc5cc(OC)c(OC)cc35)CCO4)cc2[nH]1	7.30 to 8.00
CN(C)Cc1nc2c(c(N3CCOc4ccc(-c5ccc6[nH]c(CF)nc6c5)cc4C3)n1)CC(C)(C)CC2	≥ 8.00
Cc1nc2cc(-c3ccc4c(c3)CN(c3nc([C@H]5CCCN5)nc5c3CC(C)(C)CC5)CCO4)ccc2[nH]1	7.30 to 8.00
CC(C)(CN)CNS(=O)(=O)c1cc(-c2ccc3c(c2)CN(c2ncnc4c2CC(C)(C)CC4)CCO3)cnc1N	6.60 to 7.30
Cc1nc(N)nc(N2CCOc3ccc(-c4cnc5sc(N)nc5c4)cc3C2)c1Cc1ccc(F)cc1	≥ 8.00
Cc1nc2cc(-c3ccc4c(c3)CN(c3nc(CF)nc5c3CC(C)(C)CC5)CCO4)ccc2[nH]1	7.30 to 8.00
CC1(C)CCc2ncnc(N3CCOc4ccc(-c5cnc(N)c(S(=O)(=O)NC6CCC6)c5)cc4C3)c2C1	7.30 to 8.00
CC[C@H]1CCc2c(nc(CN(C)C)nc2N2CCOc3ccc(-c4cnc5nc(C)[nH]c5c4)cc3C2)C1	≥ 8.00
CCc1nc2cc(-c3ccc4c(c3)CN(c3ncnc5c3CC(C)(C)CC5)CCO4)cnc2[nH]1	7.30 to 8.00
COc1ccc2c(N3CCOc4ccc(-c5ccc6[nH]c(C)nc6c5)cc4C3)nc(CN(C)C)nc2c1	≥ 8.00
Cc1nc2c(F)c(-c3ccc4c(c3)CN(c3nc(CN(C)C)nc5c3CC(C)(C)CC5)CCO4)ccc2[nH]1	7.30 to 8.00
COc1cc2ncnc(N3CCOc4ccc(-c5ccc6nc(C)[nH]c6c5)cc4C3)c2cc1Br	6.60 to 7.30
CC1(C)CCc2ncnc(N3CCOc4ccc(-c5cnc(N)c(S(N)(=O)=O)c5)cc4C3)c2C1	≥ 8.00
CC1(C)CCc2ncnc(N3CCOc4ccc(-c5cnc(N)c(S(=O)(=O)N6CC(F)(F)C6)c5)cc4C3)c2C1	6.60 to 7.30
CNC(=O)c1ccc(-c2ccc3c(c2)CN(c2ccnc4ccccc24)CCO3)cc1	6.60 to 7.30
CCNc1nc2ccc(-c3ccc4c(c3)CN(c3ncnc5cc(F)ccc35)CCO4)cc2[nH]1	≥ 8.00
C=CCc1c(C)nc(CN(C)C)nc1N1CCOc2ccc(-c3ccc4nc(C)[nH]c4c3)cc2C1	≥ 8.00
Cc1ncnc(N2CCOc3ccc(-c4ccc5nc(N)[nH]c5c4)cc3C2)c1Cc1ccc(F)cc1	7.30 to 8.00
Nc1nc2ncc(-c3ccc4c(c3)CN(c3ncnc5ccc(Cl)cc35)CCO4)cc2[nH]1	≥ 8.00
CCNC(=O)c1ccc(-c2ccc3c(c2)CN(c2ccnc4ccccc24)CCO3)cc1	6.00 to 6.60

SMILES	pIC50
CC1(C)CCc2ncnc(N3CCOc4ccc(-c5cnc(N)c(S(=O)(=O)NCC(F)(F)F)c5)cc4C3)c2C1	6.60 to 7.30
COC(=O)Nc1nc2ncc(-c3ccc4c(c3)CN(c3ccnc5cc(OC)c(OC)cc35)CCO4)cc2[nH]1	7.30 to 8.00
CC1(C)CCc2ncnc(N3CCOc4ccc(-c5cnc(N)c(S(=O)(=O)N6CCCC6)c5)cc4C3)c2C1	6.60 to 7.30
CN(C)Cc1nc2c(c(N3CCOc4ccc(-c5ccc(N)nc5)cc4C3)n1)CC(C)(C)CC2	6.60 to 7.30
CCCc1nc2cc(-c3ccc4c(c3)CN(c3ncnc5c3CC(C)(C)CC5)CCO4)cnc2[nH]1	6.60 to 7.30
Cc1nc2ccc(-c3ccc4c(c3)CN(c3ncnc(C)c3Cc3ccc(Cl)c(N(C)C)c3)CCO4)cc2[nH]1	7.30 to 8.00
Cc1nc2ccc(-c3ccc4c(c3)CN(c3ncncc3C)CCO4)cc2[nH]1	6.00 to 6.60
Cc1nc(C)c(C(C)C)c(N2CCOc3ccc(-c4cnc5nc(C)[nH]c5c4)cc3C2)n1	7.30 to 8.00
c1ccc2c(N3CCOc4ccc(-c5ccc6nccnc6c5)cc4C3)ccnc2c1	6.60 to 7.30
CC1(C)C=Cc2ncnc(N3CCOc4ccc(-c5cnc(N)c(S(=O)(=O)N6CC[C@@H](N)C6)c5)cc4C3)c2C1	7.30 to 8.00
CCNc1nc2ccc(-c3ccc4c(c3)CN(c3nc(NC)nc5ccccc35)CCO4)cc2[nH]1	6.60 to 7.30
Nc1nc2ccc(-c3ccc4c(c3)CN(c3ccnc5ccccc35)CCO4)cc2[nH]1	7.30 to 8.00
Cc1nc2ncc(-c3ccc4c(c3)CN(c3ncnc5c3CC(C)CC5)CCO4)cc2[nH]1 (stereo not drawn)	7.30 to 8.00
CC1(C)CCc2ncnc(N3CCOc4ccc(-c5cnc(Cl)c(S(=O)(=O)N6CC[C@H](N)C6)c5)cc4C3)c2C1	6.00 to 6.60
Cc1nc2cc(-c3ccc4c(c3)CN(c3nc(CN5CCCC5)nc(C)c3C(C)C)CCO4)ccc2[nH]1	7.30 to 8.00
Cc1nc2ccc(-c3ccc4c(c3)CN(c3ncnc(Nc5ccccc5)c3C)CCO4)cc2[nH]1	6.60 to 7.30
CCNc1nc2ccc(-c3ccc4c(c3)CN(c3ncnc(NCC)c3C)CCO4)cc2[nH]1	≥ 8.00
CCC1CCc2ncnc(N3CCOc4ccc(-c5ccc6nc(C)[nH]c6c5)cc4C3)c2C1 (stereo not drawn)	7.30 to 8.00
CC(=O)OCc1nc(C)c(Cc2ccc(F)cc2)c(N2CCOc3ccc(-c4ccc5[nH]c(C)nc5c4)cc3C2)n1	7.30 to 8.00
CC[C@H]1CCc2c(ncnc2N2CCOc3ccc(-c4cnc5nc(NC(=O)OC)[nH]c5c4)cc3C2)C1	≥ 8.00
CC1(C)CCc2ncnc(N3CCOc4ccc(-c5cnc(N)c(S(=O)(=O)CC(O)CO)c5)cc4C3)c2C1 (stereo not drawn)	7.30 to 8.00
